The supplement of paper PMC10307832

The cell lines below were run with CN1CCC(CC1)OC2=CC(=C(C=C2)NC3=NC=C4C(=N3)N(C(=O)N4C)C5CCCC5)OC [AZ3146] + CS(=O)(=O)CCNCc1ccc(-c2ccc3ncnc(Nc4ccc(OCc5cccc(F)c5)c(Cl)c4)c3c2)o1 [Lapatinib] (partner 2 µM) (assay: relative viability (nuclei count vs DMSO), 5 days (fraction); higher = more cells survive). Conditions: first compound 8 µM.
How it was run: (§1)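 Lung cancer cell lines were seeded in 1536-well plates and dosed by pin tool the next day, with either a single drug or a fixed anchor-drug dose combined with five library-drug doses (not always all listed) spaced in √10 steps. Five days later, one step fixed the cells and stained their nuclei (final 0.05% Triton X-100, 1% formaldehyde, 1 ug/ml Hoechst), and nuclei were counted on 4× images. Relative viability is the nuclei count in treated wells divided by the count in vehicle wells, and each value is the median of duplicate plates.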
NCI-H596 gave a relative viability of 0.979.
Work on NCI-H3122 yielded a relative viability of 1.02.

These cell lines were tested with CCOC(=O)CCNc1cc(N2CCc3ccccc3CC2)nc(-c2ccccn2)n1 [GSK-J4] + CS(=O)(=O)N1CCN(Cc2cc3nc(-c4cccc5[nH]ncc45)nc(N4CCOCC4)c3s2)CC1 [Pictilisib] (partner 1 µM) in the same assay as above. Conditions: first compound 0.5 µM.
How it was run: as §1
Cell Line NCI-H23 has a relative viability of 0.535.
Work on EPLC-272H yielded a relative viability of 0.428.
Cell Line NCI-H2126 has a relative viability of 0.517.
HCC-44 was tested, and the relative viability was 0.665.
Cell Line NCI-H1734 has a relative viability of 0.464.
NCI-H650 gave a relative viability of 0.839.
Cell Line LK-2 has a relative viability of 0.573.
For NCI-H2228, the relative viability was 0.337.
In the case of NCI-H1944, the relative viability is reported as 0.374.
With HARA the relative viability was 0.375.
Work on Calu-6 yielded a relative viability of 0.825.
For COR-L23, the relative viability was 0.731.
In the case of LXF-289, the relative viability is reported as 0.761.
EBC-1 gave a relative viability of 0.376.
Work on NCI-H358 yielded a relative viability of 0.459.
With NCI-H322M the relative viability was 0.544.
LC-2-ad was tested, and the relative viability was 0.548.
In the case of HCC-827, the relative viability is reported as 0.945.
In the case of A549, the relative viability is reported as 0.43.
For NCI-H1299, the relative viability was 0.733.
With CAL-12T the relative viability was 0.622.
HCC-15 gave a relative viability of 0.743.
Cell Line HOP-62 has a relative viability of 0.735.
In the case of NCI-H460, the relative viability is reported as 0.43.
Cell Line LU99A has a relative viability of 0.277.
For NCI-H2085, the relative viability was 0.546.
With A-427 the relative viability was 0.703.
In the case of NCI-H520, the relative viability is reported as 0.269.
NCI-H838 was tested, and the relative viability was 0.624.
For NCI-H1792, the relative viability was 0.306.
Work on NCI-H596 yielded a relative viability of 0.417.
With NCI-H3122 the relative viability was 0.547.

Same assay, conditions: first compound 1.581 µM
Cell Line NCI-H2126 has a relative viability of 0.446.
Cell Line HCC-44 has a relative viability of 0.57.
In the case of NCI-H1734, the relative viability is reported as 0.508.
With NCI-H650 the relative viability was 0.798.
Work on LK-2 yielded a relative viability of 0.531.
In the case of NCI-H2228, the relative viability is reported as 0.304.
NCI-H1944 was tested, and the relative viability was 0.346.
Cell Line HARA has a relative viability of 0.443.
Calu-6 was tested, and the relative viability was 0.874.
Work on COR-L23 yielded a relative viability of 0.532.
LXF-289 showed a relative viability of 0.655.
EBC-1 showed a relative viability of 0.336.
NCI-H358 showed a relative viability of 0.304.
For NCI-H322M, the relative viability was 0.574.
Cell Line LC-2-ad has a relative viability of 0.458.
HCC-827 showed a relative viability of 1.13.
With NCI-H1299 the relative viability was 0.802.
With CAL-12T the relative viability was 0.425.
HCC-15 gave a relative viability of 0.353.
HOP-62 showed a relative viability of 0.322.
NCI-H460 gave a relative viability of 0.457.
For LU99A, the relative viability was 0.276.
With NCI-H2085 the relative viability was 0.463.
For NCI-H520, the relative viability was 0.236.
In the case of NCI-H838, the relative viability is reported as 0.407.
Cell Line NCI-H1792 has a relative viability of 0.25.
For NCI-H596, the relative viability was 0.428.
NCI-H3122 gave a relative viability of 0.63.

Same assay, conditions: first compound 5 µM
For NCI-H23, the relative viability was 0.545.
EPLC-272H was tested, and the relative viability was 0.35.
In the case of NCI-H2126, the relative viability is reported as 0.633.
With HCC-44 the relative viability was 0.498.
Work on NCI-H1734 yielded a relative viability of 0.401.
NCI-H650 was tested, and the relative viability was 0.789.
For LK-2, the relative viability was 0.736.
In the case of NCI-H2228, the relative viability is reported as 0.539.
In the case of NCI-H1944, the relative viability is reported as 0.353.
In the case of Calu-6, the relative viability is reported as 0.895.
Work on LXF-289 yielded a relative viability of 0.691.
EBC-1 showed a relative viability of 0.451.
NCI-H358 gave a relative viability of 0.377.
NCI-H322M gave a relative viability of 0.7.
LC-2-ad was tested, and the relative viability was 0.622.
With HCC-827 the relative viability was 1.14.
A549 gave a relative viability of 0.573.
For NCI-H1299, the relative viability was 0.849.
Work on CAL-12T yielded a relative viability of 0.626.
For HCC-15, the relative viability was 0.784.
For HOP-62, the relative viability was 0.762.
NCI-H460 gave a relative viability of 0.519.
With LU99A the relative viability was 0.292.
In the case of NCI-H2085, the relative viability is reported as 0.677.
For A-427, the relative viability was 0.688.
Cell Line NCI-H520 has a relative viability of 0.303.
NCI-H1792 gave a relative viability of 0.254.
Cell Line NCI-H596 has a relative viability of 0.365.
Work on NCI-H3122 yielded a relative viability of 0.785.

Same assay, conditions: first compound 15.81 µM
NCI-H23 was tested, and the relative viability was 0.49.
In the case of EPLC-272H, the relative viability is reported as 0.275.
NCI-H2126 was tested, and the relative viability was 0.519.
In the case of HCC-44, the relative viability is reported as 0.553.
NCI-H1734 was tested, and the relative viability was 0.426.
NCI-H650 gave a relative viability of 0.779.
Work on LK-2 yielded a relative viability of 0.456.
For NCI-H2228, the relative viability was 0.389.
Cell Line NCI-H1944 has a relative viability of 0.336.
HARA gave a relative viability of 0.524.
With Calu-6 the relative viability was 0.88.
Work on COR-L23 yielded a relative viability of 0.606.
Cell Line LXF-289 has a relative viability of 0.754.
EBC-1 showed a relative viability of 0.416.
For NCI-H358, the relative viability was 0.407.
NCI-H322M was tested, and the relative viability was 0.538.
LC-2-ad gave a relative viability of 0.547.
HCC-827 gave a relative viability of 0.949.
A549 showed a relative viability of 0.488.
With NCI-H1299 the relative viability was 0.705.
CAL-12T was tested, and the relative viability was 0.418.
Cell Line HCC-15 has a relative viability of 0.666.
HOP-62 showed a relative viability of 0.76.
For NCI-H460, the relative viability was 0.343.
For LU99A, the relative viability was 0.346.
NCI-H2085 gave a relative viability of 0.481.
With A-427 the relative viability was 0.613.
NCI-H520 was tested, and the relative viability was 0.275.
In the case of NCI-H838, the relative viability is reported as 0.467.
With NCI-H1792 the relative viability was 0.244.
For NCI-H596, the relative viability was 0.431.
NCI-H3122 showed a relative viability of 0.557.

Same assay, conditions: first compound 50 µM
Cell Line NCI-H23 has a relative viability of 0.319.
In the case of EPLC-272H, the relative viability is reported as 0.219.
In the case of NCI-H2126, the relative viability is reported as 0.41.
Work on HCC-44 yielded a relative viability of 0.442.
For NCI-H1734, the relative viability was 0.341.
For NCI-H650, the relative viability was 0.468.
LK-2 was tested, and the relative viability was 0.443.
NCI-H2228 was tested, and the relative viability was 0.47.
In the case of NCI-H1944, the relative viability is reported as 0.288.
Cell Line HARA has a relative viability of 0.156.
Calu-6 gave a relative viability of 0.807.
In the case of COR-L23, the relative viability is reported as 0.566.
In the case of LXF-289, the relative viability is reported as 0.562.
EBC-1 gave a relative viability of 0.257.
For NCI-H358, the relative viability was 0.268.
NCI-H322M was tested, and the relative viability was 0.465.
With LC-2-ad the relative viability was 0.322.
Work on HCC-827 yielded a relative viability of 1.03.
A549 was tested, and the relative viability was 0.332.
With NCI-H1299 the relative viability was 0.327.
With CAL-12T the relative viability was 0.454.
With HCC-15 the relative viability was 0.473.
With HOP-62 the relative viability was 0.387.
NCI-H460 was tested, and the relative viability was 0.217.
With LU99A the relative viability was 0.219.
Work on NCI-H2085 yielded a relative viability of 0.415.
A-427 showed a relative viability of 0.675.
With NCI-H520 the relative viability was 0.414.
NCI-H838 was tested, and the relative viability was 0.433.
NCI-H1792 gave a relative viability of 0.263.
Work on NCI-H596 yielded a relative viability of 0.369.
Cell Line NCI-H3122 has a relative viability of 0.382.

Each cell line was assayed with CCOC(=O)CCNc1cc(N2CCc3ccccc3CC2)nc(-c2ccccn2)n1 [GSK-J4] (assay: relative viability (nuclei count vs DMSO), 5 days (fraction); higher = more cells survive). Conditions: 0.5 µM.
How it was run: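 Five library-drug doses, separated by factors of √10, were pinned into 1536-well plates holding lung cancer cell lines after an overnight stay at 37 °C. Cells were fixed, permeabilised and Hoechst-stained in one step after 5 days without medium change, then imaged at 4×. Viability compares treated-well with vehicle-well nuclei, counted in MetaXpress, as a median across plates. Passing plates had control CV below 25% and at least one doubling.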
NCI-H23 gave a relative viability of 0.956.
EPLC-272H showed a relative viability of 0.994.
